Results taken from ChEMBL document CHEMBL4507300 (2021).

Columns and labels:
[1] = target: Delta-type opioid receptor (Homo sapiens) (UniProt P41143); details: Compound concentration 10.0 uM
[2] = target: 5-hydroxytryptamine receptor 5A (Homo sapiens) (UniProt P47898); details: Compound concentration 10.0 uM
[3] = target: T1, GABA-A receptor; anion channel (Rattus norvegicus) (UniProt O09028+P15431+P18506+P18508+P19969+P20236+P23574+P23576+P28471+P28473+P30191+P62813+P63079+P63138+Q91ZM7+Q9ES14); details: Compound concentration 10.0 uM
[4] = target: Beta-2 adrenergic receptor (Homo sapiens) (UniProt P07550); details: Compound concentration 10.0 uM
[5] = organism: Rattus norvegicus; details: Compound concentration 10.0 uM
[6] = target: 5-hydroxytryptamine receptor 6 (Homo sapiens) (UniProt P50406); details: Compound concentration 10.0 uM
[7] = target: Muscarinic acetylcholine receptor M2 (Homo sapiens) (UniProt P08172); details: Compound concentration 10.0 uM
Sequence of Muscarinic acetylcholine receptor M2 (Homo sapiens) (P08172 whole entry): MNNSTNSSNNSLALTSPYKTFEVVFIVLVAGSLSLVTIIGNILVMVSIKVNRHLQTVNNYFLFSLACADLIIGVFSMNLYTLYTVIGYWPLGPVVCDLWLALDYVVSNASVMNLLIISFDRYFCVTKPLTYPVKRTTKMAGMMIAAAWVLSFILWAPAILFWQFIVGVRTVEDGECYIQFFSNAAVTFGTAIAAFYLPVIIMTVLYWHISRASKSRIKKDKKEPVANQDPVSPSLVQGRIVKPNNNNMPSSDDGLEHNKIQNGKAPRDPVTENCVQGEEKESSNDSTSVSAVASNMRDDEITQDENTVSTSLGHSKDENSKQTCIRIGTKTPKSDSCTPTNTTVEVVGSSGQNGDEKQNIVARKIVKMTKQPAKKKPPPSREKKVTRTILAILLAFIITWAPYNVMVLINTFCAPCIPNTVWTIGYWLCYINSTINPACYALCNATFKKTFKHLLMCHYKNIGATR

[8] = target: Sodium-dependent dopamine transporter (Homo sapiens) (UniProt Q01959); details: Compound concentration 10.0 uM
[9] = target: Kappa-type opioid receptor (Homo sapiens) (UniProt P41145); details: Compound concentration 10.0 uM
[10] = target: Sodium-dependent noradrenaline transporter (Homo sapiens) (UniProt P23975); details: Compound concentration 10.0 uM
[11] = target: Alpha-2C adrenergic receptor (Homo sapiens) (UniProt P18825); details: Compound concentration 10.0 uM
Sequence of Alpha-2C adrenergic receptor (Homo sapiens) (P18825 whole entry): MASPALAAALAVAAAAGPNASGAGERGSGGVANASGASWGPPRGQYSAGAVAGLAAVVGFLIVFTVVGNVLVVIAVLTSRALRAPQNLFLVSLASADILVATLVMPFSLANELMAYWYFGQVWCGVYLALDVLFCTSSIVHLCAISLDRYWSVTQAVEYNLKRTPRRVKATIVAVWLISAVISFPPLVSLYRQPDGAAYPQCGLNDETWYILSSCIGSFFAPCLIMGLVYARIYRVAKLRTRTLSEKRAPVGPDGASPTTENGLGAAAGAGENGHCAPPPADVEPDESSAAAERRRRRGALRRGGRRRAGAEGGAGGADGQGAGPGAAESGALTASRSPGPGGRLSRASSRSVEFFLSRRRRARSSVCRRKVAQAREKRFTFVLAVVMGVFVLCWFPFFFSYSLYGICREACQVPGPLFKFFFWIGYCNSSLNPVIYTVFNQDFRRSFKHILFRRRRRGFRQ

[12] = target: Muscarinic acetylcholine receptor M5 (Homo sapiens) (UniProt P08912); details: Compound concentration 10.0 uM
[13] = target: Muscarinic acetylcholine receptor M1 (Homo sapiens) (UniProt P11229); details: Compound concentration 10.0 uM
Sequence of Muscarinic acetylcholine receptor M1 (Homo sapiens) (P11229 whole entry): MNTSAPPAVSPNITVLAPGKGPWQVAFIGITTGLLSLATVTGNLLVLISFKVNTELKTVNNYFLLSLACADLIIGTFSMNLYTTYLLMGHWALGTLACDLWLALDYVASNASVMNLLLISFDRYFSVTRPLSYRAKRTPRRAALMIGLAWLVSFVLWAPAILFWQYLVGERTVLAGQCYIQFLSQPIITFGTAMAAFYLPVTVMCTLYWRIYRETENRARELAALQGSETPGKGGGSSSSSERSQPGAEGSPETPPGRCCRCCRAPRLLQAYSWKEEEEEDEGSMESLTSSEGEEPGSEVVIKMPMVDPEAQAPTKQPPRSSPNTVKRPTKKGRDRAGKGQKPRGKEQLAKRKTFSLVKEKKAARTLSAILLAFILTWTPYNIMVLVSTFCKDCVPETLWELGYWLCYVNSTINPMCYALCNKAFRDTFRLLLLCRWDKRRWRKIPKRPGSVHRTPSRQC

[14] = target: Alpha-1A adrenergic receptor (Homo sapiens) (UniProt P35348); details: Compound concentration 10.0 uM
[15] = target: 5-hydroxytryptamine receptor 3A (Homo sapiens) (UniProt P46098); details: Compound concentration 10.0 uM
[16] = target: 5-hydroxytryptamine receptor 2C (Homo sapiens) (UniProt P28335); details: Compound concentration 10.0 uM
[17] = target: Beta-3 adrenergic receptor (Homo sapiens) (UniProt P13945); details: Compound concentration 10.0 uM
[18] = target: 5-hydroxytryptamine receptor 1A (Homo sapiens) (UniProt P08908); details: Compound concentration 10.0 uM
[19] = target: Alpha-1B adrenergic receptor (Homo sapiens) (UniProt P35368); details: Compound concentration 10.0 uM
[20] = target: T2, 5-hydroxytryptamine receptor 2B (Homo sapiens, UniProt P41595); details: Compound concentration 10.0 uM
T2 sequence (P41595 whole entry): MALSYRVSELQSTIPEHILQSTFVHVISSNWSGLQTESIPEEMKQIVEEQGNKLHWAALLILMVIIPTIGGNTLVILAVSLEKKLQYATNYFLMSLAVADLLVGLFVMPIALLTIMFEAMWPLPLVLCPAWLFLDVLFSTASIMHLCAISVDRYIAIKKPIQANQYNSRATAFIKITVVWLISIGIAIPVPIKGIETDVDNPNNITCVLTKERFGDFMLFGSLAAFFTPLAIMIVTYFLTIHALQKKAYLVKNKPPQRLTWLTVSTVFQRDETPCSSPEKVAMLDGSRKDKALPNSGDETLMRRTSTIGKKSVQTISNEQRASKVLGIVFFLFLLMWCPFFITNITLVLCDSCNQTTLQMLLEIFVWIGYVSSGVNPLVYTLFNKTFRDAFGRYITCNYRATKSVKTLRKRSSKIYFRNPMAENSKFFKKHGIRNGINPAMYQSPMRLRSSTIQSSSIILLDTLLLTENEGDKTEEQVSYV

[21] = target: Beta-1 adrenergic receptor (Homo sapiens) (UniProt P08588); details: Compound concentration 10.0 uM
Sequence of Beta-1 adrenergic receptor (Homo sapiens) (P08588 whole entry, looked up): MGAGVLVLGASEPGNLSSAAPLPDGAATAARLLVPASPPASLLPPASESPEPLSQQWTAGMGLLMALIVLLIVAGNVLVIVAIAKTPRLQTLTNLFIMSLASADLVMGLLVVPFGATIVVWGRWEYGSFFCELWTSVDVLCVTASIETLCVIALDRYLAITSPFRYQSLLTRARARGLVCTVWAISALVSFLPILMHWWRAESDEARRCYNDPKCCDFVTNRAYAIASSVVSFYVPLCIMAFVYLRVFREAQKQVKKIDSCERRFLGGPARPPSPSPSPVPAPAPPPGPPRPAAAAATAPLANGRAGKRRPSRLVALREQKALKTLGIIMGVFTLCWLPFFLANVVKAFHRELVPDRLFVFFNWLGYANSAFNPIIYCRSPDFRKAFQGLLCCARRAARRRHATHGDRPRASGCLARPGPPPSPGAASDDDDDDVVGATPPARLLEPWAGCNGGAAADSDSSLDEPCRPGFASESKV

[22] = target: 5-hydroxytryptamine receptor 1D (Homo sapiens) (UniProt P28221); details: Compound concentration 10.0 uM
Sequence of 5-hydroxytryptamine receptor 1D (Homo sapiens) (P28221 whole entry): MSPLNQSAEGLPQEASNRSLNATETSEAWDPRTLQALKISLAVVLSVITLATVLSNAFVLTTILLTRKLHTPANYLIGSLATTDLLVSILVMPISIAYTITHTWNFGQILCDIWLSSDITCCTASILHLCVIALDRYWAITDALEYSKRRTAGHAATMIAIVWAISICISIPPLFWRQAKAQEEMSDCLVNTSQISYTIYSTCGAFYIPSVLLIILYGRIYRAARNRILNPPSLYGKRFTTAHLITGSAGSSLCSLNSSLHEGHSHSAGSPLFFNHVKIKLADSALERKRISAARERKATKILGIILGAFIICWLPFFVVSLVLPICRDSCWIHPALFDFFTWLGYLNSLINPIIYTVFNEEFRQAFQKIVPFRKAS

[23] = target: Alpha-2A adrenergic receptor (Homo sapiens) (UniProt P08913); details: Compound concentration 10.0 uM
[24] = target: T3, Histamine H1 receptor (Homo sapiens, UniProt P35367); details: Compound concentration 10.0 uM
T3 sequence (P35367 whole entry): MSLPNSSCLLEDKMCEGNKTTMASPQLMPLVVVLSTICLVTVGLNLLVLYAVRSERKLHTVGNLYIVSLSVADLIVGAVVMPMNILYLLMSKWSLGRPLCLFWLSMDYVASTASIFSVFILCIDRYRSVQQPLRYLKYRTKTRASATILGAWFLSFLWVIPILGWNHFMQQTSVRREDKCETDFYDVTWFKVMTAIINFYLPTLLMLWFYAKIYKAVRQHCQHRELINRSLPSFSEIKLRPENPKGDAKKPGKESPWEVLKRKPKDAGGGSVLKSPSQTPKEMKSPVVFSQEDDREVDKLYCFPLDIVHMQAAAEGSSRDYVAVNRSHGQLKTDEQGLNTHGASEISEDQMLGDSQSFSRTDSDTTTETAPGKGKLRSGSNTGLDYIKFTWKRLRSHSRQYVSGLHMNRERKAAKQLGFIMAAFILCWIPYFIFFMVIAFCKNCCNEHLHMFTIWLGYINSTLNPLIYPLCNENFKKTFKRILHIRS

[25] = target: 5-hydroxytryptamine receptor 1B (Homo sapiens) (UniProt P28222); details: Compound concentration 10.0 uM
[26] = target: T4, Sigma non-opioid intracellular receptor 1 (Homo sapiens, UniProt Q99720); assay: GPCRScan assay: inhibition of Sigma 1; parameters: radioligand conc. used [nm] 4.0 – 5.0, parental cells HEKT
T4 sequence (Q99720 whole entry): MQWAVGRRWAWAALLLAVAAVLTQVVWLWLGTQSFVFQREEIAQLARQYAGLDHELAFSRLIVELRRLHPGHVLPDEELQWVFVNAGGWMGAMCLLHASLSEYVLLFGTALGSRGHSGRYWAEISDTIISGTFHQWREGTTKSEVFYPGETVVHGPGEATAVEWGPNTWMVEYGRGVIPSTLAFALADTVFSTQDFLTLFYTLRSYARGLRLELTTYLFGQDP

[27] = target: Alpha-1D adrenergic receptor (Homo sapiens) (UniProt P25100); details: Compound concentration 10.0 uM
[28] = target: T1, GABA-A receptor; anion channel (Rattus norvegicus); details: Compound concentration 10.0 uM; remark: listed apart in the source
[29] = target: Histamine H2 receptor (Homo sapiens) (UniProt P25021); details: Compound concentration 10.0 uM
[30] = target: T5, Sodium-dependent serotonin transporter (Homo sapiens, UniProt P31645); assay: GPCRScan assay: inhibition of SERT; parameters: radioligand conc. used [nm] 1.5 – 2.0, parental cells stable HEK
[31] = target: Histamine H3 receptor (Homo sapiens) (UniProt Q9Y5N1); details: Compound concentration 10.0 uM
[32] = target: D(4) dopamine receptor (Homo sapiens) (UniProt P21917); details: Compound concentration 10.0 uM
Sequence of D(4) dopamine receptor (Homo sapiens) (P21917 whole entry): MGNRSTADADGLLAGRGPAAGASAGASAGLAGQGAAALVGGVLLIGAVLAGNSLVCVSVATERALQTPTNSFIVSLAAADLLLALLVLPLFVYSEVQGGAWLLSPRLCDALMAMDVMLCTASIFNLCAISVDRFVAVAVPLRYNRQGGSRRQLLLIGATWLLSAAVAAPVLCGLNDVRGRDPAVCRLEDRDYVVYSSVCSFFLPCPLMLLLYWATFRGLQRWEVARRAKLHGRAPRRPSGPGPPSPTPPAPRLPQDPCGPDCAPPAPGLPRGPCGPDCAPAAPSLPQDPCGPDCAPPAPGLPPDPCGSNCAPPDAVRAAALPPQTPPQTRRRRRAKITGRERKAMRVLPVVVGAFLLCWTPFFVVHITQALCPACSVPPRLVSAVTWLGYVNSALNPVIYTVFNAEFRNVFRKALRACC

[33] = target: D(3) dopamine receptor (Homo sapiens) (UniProt P35462); details: Compound concentration 10.0 uM
[34] = target: D(1B) dopamine receptor (Homo sapiens) (UniProt P21918); details: Compound concentration 10.0 uM
[35] = target: 5-hydroxytryptamine receptor 7 (Homo sapiens) (UniProt P34969); details: Compound concentration 10.0 uM
[36] = target: Alpha-2B adrenergic receptor (Homo sapiens) (UniProt P18089); details: Compound concentration 10.0 uM
[37] = target: 5-hydroxytryptamine receptor 1E (Homo sapiens) (UniProt P28566); details: Compound concentration 10.0 uM
[38] = target: Mu-type opioid receptor (Homo sapiens) (UniProt P35372); details: Compound concentration 10.0 uM
[39] = target: D(2) dopamine receptor (Homo sapiens) (UniProt P14416); details: Compound concentration 10.0 uM
[40] = target: T2, 5-hydroxytryptamine receptor 2B; assay: GPCRScan assay: inhibition of 5-HT2B; parameters: radioligand conc. used [nm] 1.0 – 2.0, parental cells stable HEK
[41] = target: T4, Sigma non-opioid intracellular receptor 1; details: Compound concentration 10.0 uM
[42] = target: T3, Histamine H1 receptor; assay: GPCRScan assay: inhibition of H1; parameters: radioligand conc. used [nm] 0.6 – 2.0, parental cells stable HEK
[43] = target: Histamine H4 receptor (Homo sapiens) (UniProt Q9H3N8); details: Compound concentration 10.0 uM
[44] = target: 5-hydroxytryptamine receptor 2A (Homo sapiens) (UniProt P28223); details: Compound concentration 10.0 uM
Sequence of 5-hydroxytryptamine receptor 2A (Homo sapiens) (P28223 whole entry): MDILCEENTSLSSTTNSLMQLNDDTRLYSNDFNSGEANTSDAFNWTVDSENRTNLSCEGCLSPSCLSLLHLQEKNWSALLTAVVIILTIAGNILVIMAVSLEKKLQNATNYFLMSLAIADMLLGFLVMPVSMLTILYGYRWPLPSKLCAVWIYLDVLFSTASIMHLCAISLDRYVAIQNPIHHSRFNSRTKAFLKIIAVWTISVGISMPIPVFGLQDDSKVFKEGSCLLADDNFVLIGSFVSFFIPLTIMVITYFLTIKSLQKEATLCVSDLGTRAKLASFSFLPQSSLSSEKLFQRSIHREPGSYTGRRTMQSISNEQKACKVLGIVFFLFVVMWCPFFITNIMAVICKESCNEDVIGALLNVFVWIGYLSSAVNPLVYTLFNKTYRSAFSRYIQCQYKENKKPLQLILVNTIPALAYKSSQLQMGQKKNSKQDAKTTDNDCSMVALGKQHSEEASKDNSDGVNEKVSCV

[45] = target: T5, Sodium-dependent serotonin transporter; details: Compound concentration 10.0 uM

Sequence of 5-hydroxytryptamine receptor 5A (Homo sapiens) (P47898 whole entry): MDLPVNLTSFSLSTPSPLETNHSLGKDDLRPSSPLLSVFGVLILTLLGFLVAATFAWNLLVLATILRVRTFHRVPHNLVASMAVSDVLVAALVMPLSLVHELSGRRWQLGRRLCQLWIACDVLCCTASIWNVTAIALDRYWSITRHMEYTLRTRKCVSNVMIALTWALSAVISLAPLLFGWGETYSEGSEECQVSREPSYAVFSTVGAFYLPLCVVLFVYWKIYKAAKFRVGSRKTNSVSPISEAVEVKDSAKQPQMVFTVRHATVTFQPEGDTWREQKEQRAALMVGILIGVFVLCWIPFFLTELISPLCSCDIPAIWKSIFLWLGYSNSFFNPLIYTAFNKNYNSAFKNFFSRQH

SMILES: COc1cccc(CNC(=O)c2nc3scc(CN(C)Cc4ccccc4)c3c(=O)[nH]2)c1 [T-26f]
- inhibition [1]: -5.54%
- inhibition [2]: 2.98%
- inhibition [3]: 32.4%
- inhibition [4]: -6.8%
- inhibition [5]: 18.5%
- inhibition [6]: 3.76%
- inhibition [7]: 26.6%
- inhibition [8]: -7.85%
- inhibition [9]: 14.2%
- inhibition [10]: 19.6%
- inhibition [11]: 16.3%
- inhibition [12]: 2.67%
- inhibition [13]: -8.97%
- inhibition [14]: 12.5%
- inhibition [15]: 20.4%
- inhibition [16]: 13.5%
- inhibition [17]: -4.01%
- inhibition [18]: 15.8%
- inhibition [19]: 12.9%
- inhibition [20]: 51%
- inhibition [21]: 30.9%
- inhibition [22]: -0.959%
- inhibition [23]: 27.3%
- inhibition [24]: 73.4%
- inhibition [25]: -2.26%
- Ki [26]: 0.263 µM
- inhibition [27]: 12.7%
- inhibition [28]: 30.5%
- inhibition [29]: 30.7%
- Ki [30]: 0.831 µM
- inhibition [31]: 6.01%
- inhibition [32]: 14.4%
- inhibition [33]: 20.1%
- inhibition [34]: 2.81%
- inhibition [35]: -5.94%
- inhibition [36]: 17.4%
- inhibition [37]: -0.688%
- inhibition [38]: 2.84%
- inhibition [39]: 12.5%
- Ki [40]: 1.6 µM
- inhibition [41]: 80.7%
- Ki [42]: 0.019 µM
- inhibition [43]: 21%
- inhibition [44]: 14.9%
- inhibition [45]: 84%
